Results taken from patent US11999727B2 (Tango Therapeutics, Inc., priority 2020, dated 2024).
Like-named read-outs stand apart in the source and are kept apart here.

What was measured:
Format in all cases: cell-based
[1] = tested on: HAP1 MTAP-intact cell line; experiment: SDMA in-cell western assay, HAP1 MTAP-intact; details: Homo sapiens
Description: (§1) Table 1 also indicates IC50 values in an MTAP-isogenic cell line pair for exemplary compounds in an SDMA in-cell western assay (columns 7-8). HAP1 MTAP-intact is a cell line in which endogenous levels of MTAP are expressed, and HAP1 MTAP-deleted is an MTAP-null cell line.

[2] = tested on: HAP1 MTAP-deleted cell line; experiment: SDMA in-cell western assay, HAP1 MTAP-deleted; details: for IC50: Homo sapiens; for MTAP intact/deleted ratio: IC50 ratio HAP1 MTAP-intact / HAP1 MTAP-deleted, SDMA in-cell western
Description: as §1

[3] = tested on: HAP1 MTAP-deleted cell line; experiment: Viability assay, MTAP-deleted cell line; details: Homo sapiens
Description: Table 1 additionally indicates IC50 values in a viability assay for the MTAP-deleted cell line (column 10), indicating the effect of treatment with compound on cell survival.

[4] = HAP1, read-out: MTAP HAP1 intact IC50
[5] = HAP1, read-out: HAP1 MTAP deleted IC50
[6] = HAP1, read-out: HAP1 MTAP deleted viability
[7] = HAP1, SDMA in-cell western, HAP1 MTAP-intact, read-out: MTAP HAP1 intact IC50
[8] = HAP1, SDMA in-cell western, HAP1 MTAP-deleted, read-out: HAP 1 MTAP deleted IC50
[9] = HAP1, viability IC50, MTAP-deleted cell line, read-out: HAP1 MTAP deleted viability

Row | SMILES | IC50 [1, 4] [nM] | IC50 [2, 5] [nM] | IC50 [3, 6] [nM] | further results
1 | C[C@@H]1CC[C@@H](c2ccc3[nH]cnc3c2)N(C(=O)C(=O)Nc2cncc(C(N)=O)c2)C1 (single isomer, unassigned) [Compound 344] | > 1000 | 100 to 1000 | 1000 to 10000 | 
2 | Cc1cncc(NC(=O)C(=O)N2[C@H](c3ccccc3)CC[C@@H](C)[C@@H]2C)c1 (single isomer, unassigned) [Compound 39] | > 1000 | > 1000 | > 10000 | 
3 | Cc1cc(NC(=O)C(=O)N2C[C@@H](C)CC[C@@H]2c2ccc3cnccc3c2)cnc1N (single isomer, unassigned) [Compound 1002] | > 1000 | 100 to 1000 | > 10000 | 
4 | C[C@H]1CC[C@H](c2ccc(O)cc2)N(C(=O)C(=O)Nc2cncc(C(N)=O)c2)C1 (single isomer, unassigned) [Compound 287] | 100 to 1000 | < 100 | < 1000 | 
5 | C[C@H]1CC[C@H](c2ccc3scnc3c2)N(C(=O)C(=O)Nc2cnc(N)c(C3CC3)c2)C1 [Compound 1319, N-(6-amino-5-cyclopropyl-3-pyridyl)-2-[(2R,5S)-2-(1,3-benzothiazol-5-yl)-5-methyl-1-piperidyl]-2-oxo-acetamide] | 100 to 1000 | < 100 | < 1000 | 
6 | Cc1cc(NC(=O)C(=O)N2C[C@@H](C)CC[C@@H]2c2ccc3c(c2)CCC(=O)N3)cnc1N (single isomer, unassigned) [Compound 502] | 100 to 1000 | < 100 | < 1000 | 
7 | Cc1cc(NC(=O)C(=O)N2C[C@H](C)CC[C@H]2c2ccc3c(c2)CCC(=O)N3)cnc1N (single isomer, unassigned) [Compound 505] | 100 to 1000 | < 100 | < 1000 | 
8 | C[C@H]1CC[C@H](c2ccc3cnccc3c2)N(C(=O)C(=O)Nc2cncc(C(N)=O)c2)C1 (single isomer, unassigned) [Compound 885] | > 1000 | > 1000 | > 10000 | 
9 | Cc1cncc(NC(=O)C(=O)N2[C@@H](c3ccccc3)CC[C@@H](C)[C@H]2C)c1 (single isomer, unassigned) [Compound 35] | > 1000 | > 1000 | > 10000 | 
10 | Cc1cc(NC(=O)C(=O)N2C[C@@H](C)CC[C@@H]2c2ccc3sc(C4CCN(C)CC4)nc3c2)cnc1N (single isomer, unassigned) [Compound 1314] | < 100 | < 100 | < 1000 | 
11 | Cc1cc(NC(=O)C(=O)N2C[C@@H](C)CC[C@@H]2c2ccc3[nH]ncc3c2)cnc1N (single isomer, unassigned) [Compound 364] | > 1000 | > 1000 | > 10000 | 
12 | C[C@H]1CC[C@H](c2ccc(N)cn2)N(C(=O)C(=O)Nc2cncc(C(N)=O)c2)C1 (relative stereo) [Compound 594, 5-[[2-[(2R,5S)-2-(5-amino-2-pyridyl)-5-methyl-1-piperidyl]-2-oxo-acetyl]amino]pyridine-3-carboxamide] |  |  |  | IC50 [1, 7]: > 1000 nM; IC50 [2, 8]: > 1000 nM; MTAP intact/deleted ratio [2]: B (an IC50 ratio greater than or equal to 3 fold but lower than 10 fold); IC50 [3, 9]: > 10000 nM
13 | COc1ncc(NC(=O)C(=O)N2C[C@H](C)CC[C@H]2c2ccc3sc(C)nc3c2)cc1C(N)=O (single isomer, unassigned) [Compound 808] |  |  |  | IC50 [1, 7]: > 1000 nM; IC50 ([2]; HAP1, SDMA in-cell western, HAP1 MTAP-deleted, read-out: HAP1 MTAP deleted IC50): > 1000 nM; IC50 ([3]; HAP1, viability assay, HAP1 MTAP-deleted, read-out: HAP1 MTAP deleted viability): > 10000 nM
14 | C[C@H]1CC[C@H](c2ccc3scnc3c2)N(C(=O)C(=O)Nc2cnc(N)c(C3COC3)c2)C1 [Compound 1356, N-[6-amino-5-(oxetan-3-yl)-3-pyridyl]-2-[(2R,5S)-2-(1,3-benzothiazol-5-yl)-5-methyl-1-piperidyl]-2-oxo-acetamide] | 100 to 1000 | < 100 | < 1000 | 
15 | Cc1cc(NC(=O)C(=O)N2C[C@H](C)CC[C@H]2c2ccc3sc(CN(C)C)nc3c2)cnc1N (racemic) [Compound 1106, N-(6-amino-5-methylpyridin-3-yl)-2-(2-(2-((dimethylamino)methyl)benzo[d]thiazol-5-yl)-5-methylpiperidin-1-yl)-2-oxoacetamide] | < 100 | < 100 | < 1000 | 
16 | Cc1cc(NC(=O)C(=O)N2C[C@@H](C)CC[C@@H]2c2ccc3sc(CCN(C)C)nc3c2)cnc1N (single isomer, unassigned) [Compound 1279] | < 100 | < 100 | < 1000 | 
17 | Cc1cc(NC(=O)C(=O)N2C[C@H](C)CC[C@H]2c2ccc3cn[nH]c3c2)cnc1N (stereo in doubt) [Compound 613, N-(6-amino-5-methyl-3-pyridyl)-2-[(2S,5R)-2-(1H-indazol-6-yl)-5-methyl-1-piperidyl]-2-oxo-acetamide] |  |  |  | IC50 [1, 7]: > 1000 nM; IC50 [2, 8]: > 1000 nM; MTAP intact/deleted ratio [2]: C (an IC50 ratio of less than 3 fold); IC50 [3, 9]: > 10000 nM

Row | SMILES | IC50 [1, 4] [nM] | IC50 [2, 5] [nM] | IC50 [3, 6] [nM] | further results
18 | Cc1cc(NC(=O)C(=O)N2C[C@H](C)CC[C@H]2c2ccc3sc(CN(C)C)nc3c2)cnc1N (single isomer, unassigned) [Compound 1122] | < 100 | < 100 | < 1000 | 
19 | Cc1cc(NC(=O)C(=O)N2C[C@@H](C)CC[C@H]2c2ccc3[nH]ncc3c2)cnc1N (single isomer, unassigned) [Compound 392] | > 1000 | < 100 | 1000 to 10000 | 
20 | Cc1cc(NC(=O)C(=O)N2C[C@H](C)CC[C@@H]2c2ccccc2)cnc1N (single isomer, unassigned) [Compound 37] | > 1000 | 100 to 1000 | 1000 to 10000 | 
21 | Cc1cc([C@H]2CC[C@H](C)CN2C(=O)C(=O)Nc2cncc(C(N)=O)c2)cc2cn[nH]c12 (relative stereo) [Compound 638, 5-[[2-[(2R,5S)-5-methyl-2-(7-methyl-1H-indazol-5-yl)-1-piperidyl]-2-oxo-acetyl]amino]pyridine-3-carboxamide] |  |  |  | IC50 [1, 7]: > 1000 nM; IC50 [2, 8]: < 100 nM; MTAP intact/deleted ratio [2]: A (an IC50 ratio greater than or equal to 10 fold); IC50 [3, 9]: 1000 to 10000 nM
22 | Cc1cncc(NC(=O)C(=O)N2[C@H](c3ccccc3)CC[C@@H](C)[C@@H]2C)c1 (racemic) [Compound 23, rac-2-[(2S,3R,6S)-2,3-dimethyl-6-phenyl-1-piperidyl]-N-(5-methyl-3-pyridyl)-2-oxo-acetamide] | > 1000 | > 1000 | > 10000 | 
23 | Cc1cc(NC(=O)C(=O)N2C[C@@H](C)CC[C@@H]2c2ccc3c(c2)CC(=O)N3)cnc1N (single isomer, unassigned) [Compound 678] | < 100 | < 100 | < 1000 | 
24 | Cc1cc(NC(=O)C(=O)N2C[C@@H](C)CC[C@@H]2c2ccc(O)cc2)cnc1N (single isomer, unassigned) [Compound 396] | > 1000 | > 1000 | > 10000 | 
25 | C[C@@H]1CC[C@@H](c2ccc3sc(C4CCN(C)CC4)nc3c2)N(C(=O)C(=O)Nc2cnc(N)c(C3CC3)c2)C1 (single isomer, unassigned) [Compound 1201] | > 1000 | 100 to 1000 | < 1000 | 
26 | C[C@H]1CC[C@H](c2ccc(C(F)F)cc2)N(C(=O)C(=O)Nc2cncc(C(N)=O)c2)C1 (single isomer, unassigned) [Compound 359] | > 1000 | < 100 | 1000 to 10000 | 
27 | C[C@@H]1CC[C@@H](c2ccc3scnc3c2)N(C(=O)C(=O)Nc2cncc(C(N)=O)c2)C1 (single isomer, unassigned) [Compound 588] | > 1000 | > 1000 | > 10000 | 
28 | Cc1cc(NC(=O)C(=O)N2CCCC[C@@H]2c2ccccc2)cnc1C (single isomer, unassigned) [Compound 189] | > 1000 | > 1000 | > 10000 | 
29 | Cc1cc(NC(=O)C(=O)N2C[C@H](C)CC[C@@H]2c2ccc3c(c2)CCC(=O)N3)cnc1N (racemic) [Compound 583, N-(6-Amino-5-methyl-3-pyridyl)-2-[(2R,5R)-5-methyl-2-(2-oxo-3,4-dihydro-1H-quinolin-6-yl)-1-piperidyl]-2-oxo-acetamide] | < 100 | < 100 | < 1000 | 
30 | C[C@@H]1CC[C@@H](c2ccc3[nH]ncc3c2)N(C(=O)C(=O)Nc2cncc(C(N)=O)c2)C1 (single isomer, unassigned) [Compound 361] | 100 to 1000 | < 100 | < 1000 | 
31 | Cc1cc(NC(=O)C(=O)N2C[C@H](C)CC[C@H]2c2ccc(C(F)F)cc2)cnc1N (single isomer, unassigned) [Compound 419] | 100 to 1000 | < 100 | 1000 to 10000 | 
32 | Cc1cc(NC(=O)C(=O)N2C[C@@H](C)CC[C@@H]2c2ccc3scnc3c2)cnc1N [Compound 616, N-(6-amino-5-methyl-3-pyridyl)-2-[(2R,5S)-2-(1,3-benzothiazol-5-yl)-5-methyl-1-piperidyl]-2-oxo-acetamide] | 100 to 1000 | < 100 | < 1000 | 
33 | C[C@H]1CC[C@@H](c2ccccc2)N(C(=O)C(=O)Nc2cncc(C(N)=O)c2)C1 (single isomer, unassigned) [Compound 82] | > 1000 | 100 to 1000 | > 10000 | 
